Where a name gives a salt, the structure may show the parent alone. Read-outs that look alike come from different tables or passages of the source.
Tests used:
CCK-A = target: T1, CCK-A (Rattus norvegicus, UniProt P30551); assay: biochemical; assay type: binding
T1 sequence (P30551 1-444): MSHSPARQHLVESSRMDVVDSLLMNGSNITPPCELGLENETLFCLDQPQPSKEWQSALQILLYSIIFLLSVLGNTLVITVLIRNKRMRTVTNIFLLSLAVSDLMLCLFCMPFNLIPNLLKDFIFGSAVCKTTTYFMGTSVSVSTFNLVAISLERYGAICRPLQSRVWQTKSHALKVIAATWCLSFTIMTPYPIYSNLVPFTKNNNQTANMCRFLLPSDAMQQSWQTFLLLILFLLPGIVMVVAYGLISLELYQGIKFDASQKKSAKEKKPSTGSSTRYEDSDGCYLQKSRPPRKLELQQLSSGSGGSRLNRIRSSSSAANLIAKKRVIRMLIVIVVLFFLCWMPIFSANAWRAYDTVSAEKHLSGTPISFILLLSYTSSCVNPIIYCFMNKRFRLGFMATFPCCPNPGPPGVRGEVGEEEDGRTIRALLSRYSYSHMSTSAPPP
Procedure: (§1) The CCK-A and CCK-B antagonising activity of the compounds described herein was evaluated using the assays described in published European patent application no. 0514133. The method essentially involves determining the concentration of the test compound required to displace 50% of the specific ^125 I-CCK from rat pancreas (CCK-A) or guinea pig brain (CCK-B).

CCK-B = target: T2, CCK-B (Cavia porcellus, UniProt H0VZC5); assay: displacement of specific 125I-CCK from guinea pig brain (CCK-B receptor binding)
T2 construct: guinea pig brain (CCK-B); from tissue; host or cells: guinea pig brain
T2 sequence (H0VZC5 1-426): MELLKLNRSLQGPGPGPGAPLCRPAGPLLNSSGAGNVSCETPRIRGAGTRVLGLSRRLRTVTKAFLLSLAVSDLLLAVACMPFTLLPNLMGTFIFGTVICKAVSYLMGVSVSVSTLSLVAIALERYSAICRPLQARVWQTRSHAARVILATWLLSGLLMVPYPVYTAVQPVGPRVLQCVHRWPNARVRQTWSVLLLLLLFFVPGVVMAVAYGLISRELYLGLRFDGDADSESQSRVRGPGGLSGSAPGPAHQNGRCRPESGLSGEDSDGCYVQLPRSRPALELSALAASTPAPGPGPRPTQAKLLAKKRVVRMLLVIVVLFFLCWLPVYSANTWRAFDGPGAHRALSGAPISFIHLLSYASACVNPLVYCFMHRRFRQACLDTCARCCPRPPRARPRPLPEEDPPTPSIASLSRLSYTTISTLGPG
Procedure: as §1, with “(CCK-B). The data in Table 1 were obtained for compounds of the Examples.” for “(CCK-B).”

[1] = rat pancreas (CCK-A), 125I-CCK, read-out: CCK RECEPTOR BINDING RESULTS IC50 125I-CCK Pancreas
[2] = read-out: CCK RECEPTOR BINDING RESULTS IC50 125I-CCK Brain
[3] = CCK RECEPTOR BINDING RESULTS IC50 125I-CCK Pancreas, rat pancreas (CCK-A), 125I-CCK
[4] = CCK RECEPTOR BINDING RESULTS IC50 125I-CCK Brain
[5] = read-out: CCK RECEPTOR BINDING RESULTS IC50 125I-CCK Pancreas

Compound | IC50 (CCK-A; [1]) [nM] | IC50 (CCK-B; [2]) [nM] | IC50 (CCK-A; [5]) [nM] | IC50 (CCK-A; [3]) [nM] | IC50 (CCK-B; [4]) [nM]
Cc1cccc(NC(=O)NC2N=C(N3CCC(C(F)(F)F)CC3)c3ccccc3N(C)C2=O)c1 (single isomer, unassigned) [20 (enantiomer A)] | 3290 | 1.52 | – | – | –
Cc1cccc(NC(=O)NC2N=C(N3CCC(C)(C)CC3)c3ccccc3N(CC(F)(F)F)C2=O)c1 (single isomer, unassigned) [28 (enantiomer B)] | 3.97 | 281 | – | – | –
CCN1C(=O)C(NC(=O)Nc2cccc(C)c2)N=C(N2CCC(C)(C)CC2)c2ccccc21 (single isomer, unassigned) [Example 30] | 347 | 0.36 | – | – | –
Cc1cccc(NC(=O)NC2N=C(N3CC4CCC(CC4)C3)c3ccccc3N(C)C2=O)c1 (single isomer, unassigned; (+)) [Example 34, (+)-N-[5-(3-Azabicyclo[3,2,2]nonan-3-yl)-2,3-dihydro-1-methyl-2-oxo-1H-1,4-benzodiazepin-3-yl]-N'-[3-methylphenyl]urea Hydrochloride] | – | – | – | 6.46 | 26.7
CN1C(=O)C(NC(=O)Nc2cccc(F)c2)N=C(N2CC3CCC(CC3)C2)c2ccccc21 (single isomer, unassigned; (+)) [Example 37, (+)-N-[5-(3-Azabicyclo[3,2,2]nonan-3-yl)-2,3-dihydro-1-methyl-2-oxo-1H-1,4-benzodiazepin-3-yl]-N'-[3-fluorophenyl]urea Hydrochloride] | – | – | – | 9 | 144
Cc1cccc(NC(=O)NC2N=C(N3CC4CCC(C4)C3)c3ccccc3N(C)C2=O)c1 (single isomer, unassigned; (+)) [Example 40, (+)-N-[5-(3-Azabicyclo[3,2,1]octan-3-yl)-2,3-dihydro-1-methyl-2-oxo-1H-1,4-benzodiazepin-3-yl]-N'-[3-methylphenyl]urea Hydrochloride] | – | 36.3 | 8.8 | – | –
Cc1ccc(NC(=O)NC2N=C(N3CC4CCC(CC4)C3)c3ccccc3N(C)C2=O)cc1F (single isomer, unassigned; (+)) [Example 46, (+)-N-[5-(3-Azabicyclo[3,2,2]nonan-3-yl)-2,3-dihydro-1-methyl-2-oxo-1H-1,4-benzodiazepin-3-yl]-N'-[3-fluoro-4-methylphenyl]urea Hydrochloride] | – | – | – | 23.7 | 20.1
CN1C(=O)C(NC(=O)Nc2cccc(I)c2)N=C(N2CC3CCC(CC3)C2)c2ccccc21 (single isomer, unassigned; (+)) [Example 49, (+)-N-[5-(3-Azabicyclo[3,2,2]nonan-3-yl)-2,3-dihydro-1-methyl-2-oxo-1H-1,4-benzodiazepin-3-yl]-N'-[3-iodophenyl]urea] | 9.65 | – | – | – | 82.7
Cc1cc(NC(=O)NC2N=C(N3CC4CCC(CC4)C3)c3ccccc3N(C)C2=O)ccc1F (single isomer, unassigned; (+)) [Example 54, (+)-N-[5-(3-Azabicyclo[3,2,2]nonan-3-yl)-2,3-dihydro-1-methyl-2-oxo-1H-1,4-benzodiazepin-3-yl]-N'-[4-fluoro-3-methylphenyl]urea Hydrochloride] | – | – | – | 8.4 | 68
CN1C(=O)C(NC(=O)Nc2cccc(C(F)(F)F)c2)N=C(N2CC3CCC(CC3)C2)c2ccccc21 (single isomer, unassigned; (+)) [Example 56, (+)-N-[5-(3-Azabicyclo[3,2,2]nonan-3-yl)-2,3-dihydro-1-methyl-2-oxo-1H-1,4-benzodiazepin-3-yl]-N'-[3-trifluoromethylphenyl]urea Hydrochloride] | 62 | 47 | – | – | –
Cc1cccc(NC(=O)NC2N=C(N3C[C@H]4CCCC[C@H]4C3)c3ccccc3N(C)C2=O)c1 (single isomer, unassigned; (+)) [Example 59, (+)-N-[2,3-Dihydro-1-methyl-5-(cis-octahydroisoindol-2-yl)-2-oxo-1H-1,4-benzodiazepin-3-yl]N'[-3-methylphenyl]urea hydrochloride] | – | 144 | 9.7 | – | –
Cc1cccc(NC(=O)NC2N=C(N(C)C3CCCCC3)c3ccccc3N(C)C2=O)c1 (single isomer, unassigned; (+)) [Example 65, (+)5-(N-Cyclohexyl-N-methylamino)-2,3-dihydro-2-oxo-1-methyl-1H-1,4-benzodiazepin-3-yl-N'[3-methylphenyl]urea. Hydrochloride] | 138 | 13.7 | – | – | –

Further compounds by falling IC50 (CCK-B; [2]), results first:

IC50 (CCK-A; [1]) [nM] | IC50 (CCK-B; [2]) [nM] | IC50 (CCK-A; [5]) [nM] | Compound | IC50 (CCK-A; [3]) [nM] | IC50 (CCK-B; [4]) [nM]
11.4 | 174 | – | COC1CCN(C2=NC(NC(=O)Nc3cccc(C)c3)C(=O)N(C)c3ccccc32)CC1 (single isomer, unassigned) [14 (enantiomer B)] | – | –
163 | 75 | – | C[C@@H]1CCC[C@H](C)N1C1=NC(NC(=O)Nc2ccc3c(c2)CCC3)C(=O)N(C)c2ccccc21 (single isomer, unassigned) [15 (enantiomer B)] | – | –
46 | 50 | – | Cc1cccc(NC(=O)NC2N=C(N3[C@H](C)C[C@H](C)C[C@@H]3C)c3ccccc3N(C)C2=O)c1 (single isomer, unassigned) [24 (enantiomer B)] | – | –
40 | 44 | – | Cc1cccc(NC(=O)NC2N=C(N3CCC(C(F)(F)F)CC3)c3ccccc3N(C)C2=O)c1 (single isomer, unassigned) [20 (enantiomer B)] | – | –
114 | 35.2 | – | CCCN1C(=O)C(NC(=O)Nc2cccc(C)c2)N=C(N(C)C2CCCCC2)c2ccccc21 (single isomer, unassigned; (+)) [Example 62, (+) 5-(N-Cyclohexyl-N-methylamino)-2,3-dihydro-2-oxo-1-propyl-1H-1,4-benzodiazepin-3-y1-N'-[3-methylphenyl]urea] | – | –
3670 | 32.9 | – | Cc1cccc(NC(=O)NC2N=C(N3CCCCC3(C)C)c3ccccc3N(C)C2=O)c1 (single isomer, unassigned) [22 (enantiomer A)] | – | –
239 | 27.8 | – | Cc1cccc(NC(=O)NC2N=C(N3CCC(C)(C)CC3)c3ccccc3N(CC(F)(F)F)C2=O)c1 (single isomer, unassigned) [28 (enantiomer A)] | – | –
2.61 | 23.2 | – | Cc1cccc(NC(=O)NC2N=C(N3CCC(C)CC3)c3ccccc3N(C)C2=O)c1 (single isomer, unassigned) [8 (enantiomer B)] | – | –
7.8 | 14.8 | – | CN1C(=O)C(NC(=O)Nc2ccc3c(c2)CCC3)N=C(N2CCC(C)(C)CC2)c2ccccc21 (single isomer, unassigned) [5 (enantiomer B)] | – | –
0.42 | 12.6 | – | Cc1cccc(NC(=O)NC2N=C(N3CCC(C)(C)CC3)c3ccccc3N(C)C2=O)c1 (single isomer, unassigned) [10 (enantiomer B)] | – | –
3220 | 11.6 | – | COC1CCN(C2=NC(NC(=O)Nc3cccc(C)c3)C(=O)N(C)c3ccccc32)CC1 (single isomer, unassigned) [14 (enantiomer A)] | – | –
1900 | 3.47 | – | C[C@@H]1CCC[C@H](C)N1C1=NC(NC(=O)Nc2ccc3c(c2)CCC3)C(=O)N(C)c2ccccc21 (single isomer, unassigned) [15 (enantiomer A)] | – | –
2250 | 0.927 | – | Cc1cccc(NC(=O)NC2N=C(N3[C@H](C)C[C@H](C)C[C@@H]3C)c3ccccc3N(C)C2=O)c1 (single isomer, unassigned) [24 (enantiomer A)] | – | –
421 | 0.76 | – | Cc1cccc(NC(=O)NC2N=C(N3CCC(C)(C)CC3)c3ccccc3N(C)C2=O)c1 (single isomer, unassigned) [10 (enantiomer A)] | – | –
765 | 0.64 | – | CCCN1C(=O)C(NC(=O)Nc2cccc(C)c2)N=C(N2CCC(C)CC2)c2ccccc21 (single isomer, unassigned) [18 (enantiomer A)] | – | –
981 | 0.35 | – | Cc1cccc(NC(=O)NC2N=C(N3CCC(C)CC3)c3ccccc3N(C)C2=O)c1 (single isomer, unassigned) [8 (enantiomer A)] | – | –
